Measured values as given in patent publication US20070122843A1, “Isoflavonoid analogs and their metal complexes as anti-cancer agents” (priority 2005, published 2007).
Like-named read-outs stand apart in the source and are kept apart here. One block for each compound: values may come before it.

Key:
[1] = system: MCF-7; experiment: MTT cell viability assay, MCF-7; assay type: cell-based
Procedure: (§1) The compounds were tested in multiple panels of breast (MCF-7, T47D, BT20 and MDA-MB231), prostate (PC3), and pancreatic (BxPC3, COLO357) cancer cell lines, using the dye 3-[4,5 dimethylthiazol-2-yl]-2,5 diphenyltetrazolium bromide (MTT assay) according to a method described in Banerjee, et al., Cancer Research. 2002 62, 4945.
(§2) More specifically, the tumor cell lines MCF-7, MDA-MB 231 and COLO 357 were maintained in Dulbecco's modifed Eagle's medium (DMEM) with phenol red. Cell lines T47D, BT20, PC3 and BxPC3 were routinely cultured in RPMI medium, each medium being supplemented with Penicillin (50U/ml), Streptomycin (50 μg/ml) and 10% fetal calf serum (FCS) (Gibco, Myclone). The cell lines were cultured in a humidified incubator in an atmosphere of 5% CO2 and were maintained in continuous exponential growth by twice a week passage.
(§3) Adherent cells at a logarithmic phase were detached by addition of 2-3 ml of trypsin (Gibco), 0.02% EDTA mixture and incubation at 37° C. Cells were plated (100 μL per well) in 48 well flat bottom microtiter plates at densities of 2000 to 5000 per cm^2 (MCF-7, MDA-MB321, T47D, BT20, PC3, B×PC3, COLO357) cells per well. Cells were incubated for 24 h at 37° C. to resume exponential growth. The test compounds were dissolved in DMSO (final concentration 0.1%) and added to the cells 24 h after seeding at varying concentrations. Control wells containing the culture medium, were included in each experiment. Cell proliferation was evaluated after 72 h by means of MTT assay.

[2] = system: MDA-MB 231; experiment: MTT cell viability assay, MDA-MB 231; assay type: cell-based
Procedure: as §1, §2, §3

[3] = system: BT20; experiment: MTT cell viability / proliferation assay, BT20; assay type: cell-based
Procedure: (§4) More specifically, the tumor cell lines MCF-7, MDA-MB 231 and COLO 357 were maintained in Dulbecco's modifed Eagle's medium (DMEM) with phenol red. […] The cell lines were cultured in a humidified incubator in an atmosphere of 5% CO2 and were maintained in continuous exponential growth by twice a week passage. Adherent cells at a logarithmic phase were detached by addition of 2-3 ml of trypsin (Gibco), 0.02% EDTA mixture and incubation at 37° C. […] Cells were incubated for 24 h at 37° C. to resume exponential growth. The test compounds were dissolved in DMSO (final concentration 0.1%) and added to the cells 24 h after seeding at varying concentrations. Control wells containing the culture medium, were included in each experiment. Cell proliferation was evaluated after 72 h by means of MTT assay. The biological effects of these compounds were studied against the hormone independent breast (BT20) and prostate (PC3) cancers as well as K-ras positive (Colo357) and K-ras negative (B×PC3) pancreatic cancer cell lines.

[4] = system: PC3; experiment: MTT cell viability / proliferation assay, PC3; assay type: cell-based, human
Procedure: as §4

[5] = system: BxPC3; experiment: MTT cell viability / proliferation assay, BxPC3; assay type: cell-based
Procedure: as §4

[6] = system: COLO357; experiment: MTT cell viability / proliferation assay, COLO357; assay type: cell-based
Procedure: as §4

[7] = molecular target: T1, Akt1/PKBα, active enzyme (Homo sapiens, UniProt P31749); experiment: Fluorescence polarization Akt kinase assay; assay type: biochemical
T1 construct: purchased Upstate Biotechnology 14-276
T1 sequence (P31749 whole entry): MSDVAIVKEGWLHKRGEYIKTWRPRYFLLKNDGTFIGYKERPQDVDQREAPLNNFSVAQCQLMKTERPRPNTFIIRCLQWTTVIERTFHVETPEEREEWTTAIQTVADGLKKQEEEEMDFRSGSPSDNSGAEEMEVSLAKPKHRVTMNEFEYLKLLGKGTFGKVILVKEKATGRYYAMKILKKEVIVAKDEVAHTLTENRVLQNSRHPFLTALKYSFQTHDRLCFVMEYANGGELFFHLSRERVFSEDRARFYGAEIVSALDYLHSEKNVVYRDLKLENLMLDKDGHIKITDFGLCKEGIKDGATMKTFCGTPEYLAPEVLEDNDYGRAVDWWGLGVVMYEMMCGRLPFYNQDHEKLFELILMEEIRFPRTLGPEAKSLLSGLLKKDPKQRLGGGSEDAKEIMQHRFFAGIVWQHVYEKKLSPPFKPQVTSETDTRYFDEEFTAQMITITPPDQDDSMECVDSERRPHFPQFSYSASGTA
Procedure: The serine threonine Akt kinase reaction was carried out in 96 well black plates in a total volume of 100 μl using Ser/Thr kinase polarization based assay kit from Invitrogen Part # P3103. Briefly, the Akt kinase assay reaction was set up in a total volume of 40 μl in the presence of different concentrations of inhibitor. Stock solutions of test compounds were made in DMSO. From DMSO stocks, 4× solutions of test compounds were prepared in 1× assay dilution buffer; 10 μl of this drug solution was used in the assay. […] The plate was incubated at 30° C. for 30 minutes. Enzyme reaction was quenched with 10 μl of 50 mM EDTA for 5 minutes. Anti phosphor serine antibody was added 25 μl/well followed by 10 μl of fluorescent tracer. The total volume was made up to 100 μl by adding 15 μl of fluorescence polarization assay dilution buffer. Appropriate controls and blanks were prepared. The plate was incubated for 1 h at RT and was analyzed for polarization at 435 excitation and 535 emission wavelength on Tecan Ultra microplate reader. Polarization values were normalized to the control and were plotted against log concentration of test compounds using Graph Pad Prism software. Sigmoidal dose response curve analysis was used to calculate the IC50 of test compounds.

[8] = system: breast, prostate and pancreatic cancer cell lines; experiment: MTT assay, statements over several cancer cell lines; assay type: cell-based
Procedure: as §1, §2, §3
The biological effects of these compounds were studied against the hormone independent breast (BT20) and prostate (PC3) cancers as well as K-ras positive (Colo357) and K-ras negative (B×PC3) pancreatic cancer cell lines.

[9] = system: Colo357, BxPC3, BT20, and PC3 cells; experiment: Cell Death Detection ELISA apoptosis assay; assay type: cell-based; settings: FPA-124, FPA-125, FPA-127 compared
Procedure: To determine whether the metal conjugates induce apoptosis in tumor cells, quantitative evaluation of apoptosis was carried out with a Cell Death Detection ELISA kit (Roche, Palo Alto, Calif.). Apoptosis was detected according to the protocol supplied by the manufacturer.
Since all copper compounds are redox active metal conjugates, we believe that redox triggered oxidative stress may be one of the underlying mechanisms for the observed apoptotic cell death in the present case. […] This observation is also in accordance with the favorable distortion factor calculated for the present copper compounds using EPR spectra, which factor helps stabilize cuprous and cupric species without dissociation of the conjugate.

[10] = system: COLO 357 cells; experiment: Orthotopic pancreatic tumor model using COLO 357 cells; assay type: in vivo
Procedure: The redox sensitive transcription factor NF-kB, is downstream of the Akt kinase protein and plays major role in the cell proliferation and metastasis and resistance in major cancers such as breast, prostate and pancreatic. […] Nuclear proteins were extracted from the tumor tissue as described previously (see, for example, Banerjee, et al, Cancer Research, Vo. 65, p. 9064 (2005)) and kept at −70° C. until use. Protein concentration was determined using the bicinchonic acid assay kit with BSA as the standard (Pierce Chemical Co., Rockford, Ill.). The incubation mixture included 25 mM DTT and 2.5% Tween 20 in a binding buffer. The DNA-protein complex formed was separated from free oligonucleotide on 8.0% native polyacralyamide gel using buffer containing 50 mM Tris, 200 mm glycine, pH 8.5, and 1 mM EDTA, and then visualized by Odyssey Infrared Imaging System using Odyssey Software Release 1.1.
Since the NF-κB pathway is regulated by Akt protein, the effects of the FPA-124 on NF-κB activity was studied in an in vivo experiment, specifically the well-established orthotopic pancreatic tumor model using COLO 357 cells.

[11] = system: T47D; experiment: MTT cell viability assay, T47D; assay type: cell-based; settings: 72 h
Procedure: as §1, §2
as §3, with “The test compounds were dissolved in DMSO (final concentration 0.1%) and added to the cells 24 h after seeding at varying concentrations. Control wells containing the culture medium, were included in each experiment.” left out

[12] = system: breast cancer cell line (T47D); experiment: Propidium iodide / Hoechst 33342 staining, apoptosis and cell viability; assay type: cell-based
Procedure: To provide further evidence of apoptosis, we carried out phase contrast microscopy using a mixture of propidium iodide (PI) and Hoechst dye 33342 to determine the integrity of cell membranes of cancer cells. The quantification of the apoptosis was carried out by cell count after staining with PI followed by visualization of treated cells by fluorescence analysis. […] After 5 minutes at 37° C. the cells were placed under a fluorescence microscope (Nikon Optiphot) with a filter block giving excitation at 380 nm and 480 nm.

[13] = system: PC3 cells; experiment: Western blot of Akt, p-Akt and PARP in PC3 cells; assay type: cell-based, human; settings: 10 and 20 μM, 72 h
Procedure: Control cells were incubated in the medium with Na2CO3 using same time point. After incubation the cells were lysed with This-HCl (62.5 mm) and 2% SDS. Protein concentration was then measured using […] protein assay (Pierce Chemical Co., Rockford, Ill.). Cell extracts were subjected to 10% SDS-PAGE and electrophoretically transferred to nitrocellulose membrane. Membranes were then incubated with monoclonal anti-Akt (epitome: amino acids 345-480 of Akt1, 1:500; Ontogeny, 26. San Diego, Calif.), anti-phosphor-Akt Ser473 (1:1000; Cell Signaling, Beverly, Mass.), primary monoclonal anti-PARP antibody (1:5000; Biomol, Plymouth Meeting, Pa.) and anti-β-actin (1:5000; Sigma) antibodies, washed with TTBS, and incubated with secondary antibody conjugated with peroxidase. The signal was then detected using the chemiluminescent detection system (Pierce, Rockford, Ill.).

[14] = system: vascular endothelial growth factor (VEGF); experiment: VEGF ELISA in BxPC3 cells; assay type: cell-based, human; settings: 10 μM, 20 μM, 72 h
Procedure: B×PC3 cells (0.1×10^6/well) were plated into 6-well plates and incubated in supplemented RPMI containing 10% FBS.

[15] = 72 h, Table 1, read-out: MTT cell viability assay IC50 BT20
[16] = 72 h, Table 1, read-out: MTT cell viability assay IC50 PC3
[17] = 72 h, Table 1, read-out: MTT cell viability assay IC50 BxPC3
[18] = 72 h, Table 1, read-out: MTT cell viability assay IC50 COLO357
[19] = FPA-102 25 mg/kg wt, i.v. on alternate days

Compound: CC(=O)C1CCC2C3CCC4=CC(=NNC(N)=S)CCC4(C)C3CCC12C.[Cl][Pt][Cl] (stereo not drawn) [FPA-104]
- IC50 ([1]; 72 h): 22 µM
- IC50 ([2]; 72 h): 34 µM
- IC50 [3, 15]: 18 µM
- IC50 [4, 16]: 18 µM
- IC50 [5, 17]: 5 µM
- IC50 [6, 18]: 7.3 µM
- concentration inhibiting Akt kinase activity [7]: higher concentration

- IC50 ([3]; Homo sapiens, BT-20, Table 2, read-out: MTT Cell Proliferation Assay IC50 BT20): 46 to 70 µM
- IC50 ([4]; Homo sapiens, PC-3, Table 2, read-out: MTT Cell Proliferation Assay IC50 PC3): 50 µM
- IC50 ([5]; Homo sapiens, BXPC-3, Table 2, read-out: MTT Cell Proliferation Assay IC50 BxPC3): 30 µM
- IC50 ([6]; Homo sapiens, COLO357, Table 2, read-out: MTT Cell Proliferation Assay IC50 COLO357): 50 µM
- IC50 ([8]; Pancreatic cancer cell, Colo357, BxPC3, BT20, PC3, read-out: IC50 values in these multiple cancer cell lines): > 40 µM
- IC50 ([7]; Table 2, read-out: Fluorescence Polarization Akt kinase Assay IC50): > 70 µM
Compound: O=c1c(-c2ccc(O)cc2)coc2cc(O)cc(O)c12 [Genistein, 4,5,7,-trihydroxyisoflavone, reference compound]

Compound: CC(=O)C1CCC2C3CCC4=CC(=NNC(N)=S)CCC4(C)C3CCC12C (stereo not drawn) [FPA-101, 17-acetyl-10,13-dimethyl-1,2,6,7,8,9,11,12,13,14,15,16,17-tetradecahydrocyclopenta[a]phenantnren-3-thiosemicarbazone]
- IC50 ([1]; Homo sapiens, MCF7, 72 h): 20 µM
- IC50 ([2]; Homo sapiens, MDA-MB-231, 72 h): 25 µM
- IC50 ([3]; Homo sapiens, BT-20, 72 h, Table 1, read-out: MTT cell viability assay IC50 BT20): 53 µM
- IC50 ([4]; Homo sapiens, PC-3, 72 h, Table 1, read-out: MTT cell viability assay IC50 PC3): 16 µM
- IC50 ([5]; Homo sapiens, BXPC-3, 72 h, Table 1, read-out: MTT cell viability assay IC50 BxPC3): 5 µM
- IC50 ([6]; Homo sapiens, COLO357, 72 h, Table 1, read-out: MTT cell viability assay IC50 COLO357): 13 µM
- antiproliferative action against the cell lines tested ([8]; cell lines of Table 1): moderate antiproliferative action
- concentration inhibiting Akt kinase activity [7]: higher concentration

Compound: NC1=[S+][Cu-2]([Cl])([Cl])[N+](=Cc2coc3ccccc3c2=O)N1 [FPA-124]
- IC50 ([3]; read-out: concentration for 50% cell kill, BT20 cells): 7 µM
- IC50 ([4]; read-out: concentration for 50% cell kill, PC3 cells): 10 µM
- IC50 ([5]; Table 2, read-out: MTT Cell Proliferation Assay IC50 BxPC3): 55 µM
- IC50 ([6]; Table 2, read-out: MTT Cell Proliferation Assay IC50 COLO357): 34 µM
- IC50 ([7]; read-out: Akt kinase activity IC50): 0.1 µM
- apoptosis by ELISA, rank among metal conjugates [9]: most active compound
- NF-κB activity in tumor tissue (EMSA) ([10]; FPA-124 study): significantly decreased
- body weight of the treated animals (toxicity) ([10]; FPA-124 study): no change in the body weight
- tumor load (pancreas weight) ([10]; FPA-124 study): decrease in the tumor load

Compound: CC(=O)C1CCC2C3CCC4=CC(=NNC(N)=S)CCC4(C)C3CCC12C.[Cl][Cu][Cl] (stereo not drawn) [FPA-102]
- IC50 ([1]; 72 h): 6 µM
- IC50 ([2]; 72 h): 11 µM
- IC50 [11]: 5 µM
- IC50 [3, 15]: 13 µM
- IC50 [4, 16]: 9 µM
- IC50 [5, 17]: 12.7 µM
- IC50 [6, 18]: 9 µM
- IC50 ([8]; MCF-7, MDA-MB 231, T47D, BT20, PC3, BxPC3, COLO357, read-out: IC50 values, range over the cell lines of Table 1): 5 to 13 µM
- apoptotic cells ([12]; IC50 concentration, 24-48 h treatment): ~95%
- non-viable cells ([12]; IC50 concentration, 3 h incubation): 40%
- cell death by uptake of propidium iodide ([12]; T47D, 10 μM, 72 hours): cells undergoing cell death by uptake of propidium iodide
- PARP degradation, Western blot [13]: induces poly (ADP-ribose) polymerase degradation
- phosphor-Akt, Western blot [13]: down regulates
- VEGF levels [14]: decrease in the VEGF levels
- body weight of treated mice vs control (toxicity) [10, 19]: no significant change in the body weight
- tumor burden [10, 19]: decrease tumor burden
- NF-κB in tumor tissue (EMSA) ([10]; treatment for 10 days, once every alternate day): down-regulation of NF-κB
- tumor histology ([10]; tumor from treated mice): marked necrosis and apoptosis
- viable part of tumor mass, histology ([10]; tumor from treated mice): 20%

Compound: CC(=O)C1CCC2C3CCC4=CC(=NNC(N)=S)CCC4(C)C3CCC12C.[Cl][Ni][Cl] (stereo not drawn) [FPA-103]
- IC50 ([1]; 72 h): 7.5 µM
- IC50 [3, 15]: > 100 µM
- IC50 [4, 16]: > 100 µM
- IC50 [6, 18]: 20 µM
- concentration inhibiting Akt kinase activity [7]: higher concentration
